Laboratory results: US10874743B2, “IRAK degraders and uses thereof” (Kymera Therapeutics, Inc., priority 2017, dated 2020)

Assays:
IRAK4 [1] = target: T1, IRAK4 (Homo sapiens, UniProt Q9NWZ3); test: OCI-LY-10 degradation assay (western blot, % IRAK4 degraded after 4 hours); assay type: cell-based; design: endogenous in cells; host or cells: OCI-LY10; conditions: OCI-LY10 cells, 4 hours; for OCI-LY10 % IRAK4 Degradation (0.01 uM): 0.01 uM compound; for OCI-LY10 % IRAK4 Degradation (0.1 uM): 0.1 uM compound; for OCI-LY10 % IRAK4 Degradation (1 uM): 1 uM compound
T1 sequence (Q9NWZ3 1-460): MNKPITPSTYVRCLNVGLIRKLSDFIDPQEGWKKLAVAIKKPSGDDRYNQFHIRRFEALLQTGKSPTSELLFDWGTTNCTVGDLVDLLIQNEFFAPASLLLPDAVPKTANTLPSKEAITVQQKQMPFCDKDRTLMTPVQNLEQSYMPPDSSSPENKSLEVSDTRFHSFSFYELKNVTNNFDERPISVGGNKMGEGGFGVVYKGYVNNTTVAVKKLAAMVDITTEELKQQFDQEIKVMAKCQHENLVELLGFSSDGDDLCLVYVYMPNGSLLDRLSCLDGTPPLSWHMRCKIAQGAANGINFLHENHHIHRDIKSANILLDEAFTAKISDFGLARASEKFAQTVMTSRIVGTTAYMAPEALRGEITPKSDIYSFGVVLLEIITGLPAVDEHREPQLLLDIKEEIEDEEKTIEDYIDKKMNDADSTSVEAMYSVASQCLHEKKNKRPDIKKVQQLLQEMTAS
Procedure, shortened: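 OCI-LY10 cells (RPMI-1640, 20% FBS, 55 μM 2-ME) treated with compound at 0.003-10 μM final for 4 h at 37° C, then lysed in RIPA buffer. IRAK4 level read by fluorescent western blot (20-25 μg protein) and binned as % degraded: A >50%, B >20-50%, C <20%.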

IRAK4 [2] = target: T1, IRAK4; test: OCI-LY-10 MSD assay for IRAK4 DC50; assay type: cell-based; design: endogenous in cells; host or cells: OCI-LY10; conditions: OCI-LY10 cells, 4 hr incubation, concentration required to degrade 50% of protein
Procedure, shortened: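 OCI-Ly10 cells were exposed to compound for 4 hr across a 3-fold, 8-point dilution series. Lysates were made in RIPA buffer, and IRAK4 remaining was measured by MSD sandwich immunoassay with anti-IRAK4 capture and detection antibodies. DC50 was taken from a four-parameter logistic fit.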

| OCI-LY10 % IRAK4 Degradation (0.01 uM) (IRAK4 [1]) | OCI-LY10 % IRAK4 Degradation (0.1 uM) (IRAK4 [1]) | OCI-LY10 % IRAK4 Degradation (1 uM) (IRAK4 [1]) | DC50 (IRAK4 [2]) [nM] | SMILES |
| --- | --- | --- | --- | --- |
| C (<20% degradation) | B (>20-50% degradation) | C (<20% degradation) | > 1000 | O=C1CCC(N2C(=O)c3cccc(CCCCCN4CCC(n5cc(NC(=O)c6coc(-c7ccnc(NCC8CC8)c7)n6)c(C(F)F)n5)CC4)c3C2=O)C(=O)N1 (stereo not shown) [I-258] |
| C (<20% degradation) | B (>20-50% degradation) | B (>20-50% degradation) | > 1000 | O=C1CCC(N2C(=O)c3ccc(CCOCCN4CCC(n5cc(NC(=O)c6coc(-c7ccnc(NCC8CC8)c7)n6)c(C(F)F)n5)CC4)cc3C2=O)C(=O)N1 (stereo not shown) [I-262] |
| B (>20-50% degradation) | A (>50% degradation) | A (>50% degradation) | < 50 | O=C1CCC(n2c(=O)oc3c(CCCOCCOCCNC(=O)c4ccc(-n5cc(NC(=O)c6coc(-c7ccnc(NCC8CC8)c7)n6)c(C(F)F)n5)cc4)cccc32)C(=O)N1 (stereo not shown) [I-265] |
| C (<20% degradation) | A (>50% degradation) | A (>50% degradation) | < 50 | NC(=O)c1nn(-c2ccc(C(=O)NCCOCCOCCCc3cccc4c3oc(=O)n4C3CCC(=O)NC3=O)cc2)cc1NC(=O)c1coc(-c2ccnc(NCC(F)(F)F)c2)n1 (stereo not shown) [I-266] |
| C (<20% degradation) | A (>50% degradation) | B (>20-50% degradation) | 50 to 100 | O=C1CCC(N2C(=O)c3cccc(NC4CCN(CCOCCOCCNC(=O)c5ccc(-n6cc(NC(=O)c7coc(-c8ccnc(NCC9CC9)c8)n7)c(C(F)F)n6)cc5)CC4)c3C2=O)C(=O)N1 (stereo not shown) [I-267] |
| C (<20% degradation) | B (>20-50% degradation) | A (>50% degradation) | < 50 | O=C1CCC(N2C(=O)c3cccc(NC4CCN(CCOCCOCCOCCNC(=O)c5ccc(-n6cc(NC(=O)c7coc(-c8ccnc(NCC9CC9)c8)n7)c(C(F)F)n6)cc5)CC4)c3C2=O)C(=O)N1 (stereo not shown) [I-269] |
| – | – | – | 100 to 500 | Cn1c(=O)n(C2CCC(=O)NC2=O)c2cccc(CCCOCCOCCNCc3ccc(-n4cc(NC(=O)c5cnn6ccc(N7CCNCC7)nc56)c(C(F)F)n4)cc3)c21 (stereo not shown) [I-446, N-[3-(difluoromethyl)-1-[4-[[2-[2-[3-[1-(2,6-dioxo-3-piperidyl)-3-methyl-2-oxo-benzimidazol-4-yl]propoxy]ethoxy]ethylamino]methyl]phenyl]pyrazol-4-yl]-5-piperazin-1-yl-pyrazolo[1,5-a]pyrimidine-3-carboxamide] |
| – | – | – | 50 to 100 | Cn1c(=O)n(C2CCC(=O)NC2=O)c2ccc(CCCOCCOCCOCCOCC(=O)N3CCN(C4CCC(Nc5ncnc6[nH]cc(C7CCOCC7)c56)CC4)CC3)cc21 (stereo not shown) [I-447, 3-[3-Methyl-2-oxo-5-[3-[2-[2-[2-[2-oxo-2-[4-[4-[(5-tetrahydropyran-4-yl-7H-pyrrolo[2,3-d]pyrimidin-4-yl)amino]cyclohexyl]piperazin-1-yl]ethoxy]ethoxy]ethoxy]ethoxy]propyl]benzimidazol-1-yl]piperidine-2,6-dione] |
| – | – | – | > 1000 | CN[C@@H](C)C(=O)N[C@H](C(=O)N1CCC[C@H]1c1nc(C(=O)c2cccc(OCCOCCOCCOCCNCc3ccc(-n4cc(NC(=O)c5coc(-c6ccnc(NCC7CC7)c6)n5)c(C(F)F)n4)cc3)c2)cs1)C1CCCCC1 [I-554] |
| – | – | – | 500 to 1000 | CN[C@@H](C)C(=O)N[C@H](C(=O)N1Cc2cc(OCCOCCOCCOCCNCc3ccc(-n4cc(NC(=O)c5coc(-c6ccnc(NCC7CC7)c6)n5)c(C(F)F)n4)cc3)ccc2C[C@H]1C(=O)N[C@@H]1CCCc2ccccc21)C(C)(C)C [I-681, 2-[2-(Cyclopropylmethylamino)-4-pyridyl]-N-[3-(difluoromethyl)-1-[4-[[2-[2-[2-[2-[[(3S)-2-[(2S)-3,3-dimethyl-2-[[(2S)-2-(methylamino)propanoyl]amino]butanoyl]-3-[[(1R)-tetralin-1-yl]carbamoyl]-3,4-dihydro-1H-isoquinolin-7-yl]oxy]ethoxy]ethoxy]ethoxy]ethylamino]methyl]phenyl]pyrazol-4-yl]oxazole-4-carboxamide] |

Further lines, the compound ahead of its results:

| SMILES | OCI-LY10 % IRAK4 Degradation (0.01 uM) (IRAK4 [1]) | OCI-LY10 % IRAK4 Degradation (0.1 uM) (IRAK4 [1]) | OCI-LY10 % IRAK4 Degradation (1 uM) (IRAK4 [1]) | DC50 (IRAK4 [2]) [nM] |
| --- | --- | --- | --- | --- |
| NC(=O)c1nn(-c2ccc(C(=O)NCC3CCCCN3CCOCCNc3cccc4c3C(=O)N(C3CCC(=O)NC3=O)C4=O)cc2)cc1NC(=O)c1coc(-c2ccnc(NCC(F)(F)F)c2)n1 (stereo not shown) [I-219] | A (>50% degradation) | A (>50% degradation) | A (>50% degradation) | < 50 |
| CN(CCOCCOCCCc1cccc2c1C(=O)N(C1CCC(=O)NC1=O)C2=O)C(=O)c1ccc(-n2cc(NC(=O)c3coc(-c4ccnc(NCC5CC5)c4)n3)c(C(N)=O)n2)cc1 (stereo not shown) [I-224] | B (>20-50% degradation) | A (>50% degradation) | A (>50% degradation) | < 50 |
| CN(CCOCCOCCCc1cccc2c1C(=O)N(C1CCC(=O)NC1=O)C2=O)C(=O)c1ccc(-n2cc(NC(=O)c3coc(-c4ccnc(NCC5CC5)c4)n3)c(C(F)F)n2)cc1 (stereo not shown) [I-225] | C (<20% degradation) | A (>50% degradation) | A (>50% degradation) | < 50 |
| CN(CCOCCOCCCc1ccc2c(c1)C(=O)N(C1CCC(=O)NC1=O)C2=O)C(=O)c1ccc(-n2cc(NC(=O)c3coc(-c4ccncc4)n3)c(C(N)=O)n2)cc1 (stereo not shown) [I-227] | B (>20-50% degradation) | A (>50% degradation) | A (>50% degradation) | < 50 |
| CN(CCOCCOCCCc1ccc2c(c1)C(=O)N(C1CCC(=O)NC1=O)C2=O)C(=O)c1ccc(-n2cc(NC(=O)c3coc(-c4ccnc(NCC5CC5)c4)n3)c(C(N)=O)n2)cc1 (stereo not shown) [I-228] | A (>50% degradation) | A (>50% degradation) | A (>50% degradation) | < 50 |
| NC(=O)c1nn(-c2ccc(C(=O)NCCOCCOCCn3c(=O)n(C4CCC(=O)NC4=O)c4ccccc43)cc2)cc1NC(=O)c1coc(-c2ccnc(NCC(F)(F)F)c2)n1 (stereo not shown) [I-231] | A (>50% degradation) | A (>50% degradation) | A (>50% degradation) | < 50 |
| NC(=O)c1nn(-c2ccc(C(=O)NCCOCCOCCOCCOCCCc3cccc4c3C(=O)N(C3CCC(=O)NC3=O)C4=O)cc2)cc1NC(=O)c1coc(-c2ccnc(NCC(F)(F)F)c2)n1 (stereo not shown) [I-235] | C (<20% degradation) | A (>50% degradation) | A (>50% degradation) | 50 to 100 |
| NC(=O)c1nn(CCOCCOCCOCCOCCNc2cccc3c2C(=O)N(C2CCC(=O)NC2=O)C3=O)cc1NC(=O)c1coc(-c2ccnc(NCC3CC3)c2)n1 (stereo not shown) [I-240] | B (>20-50% degradation) | B (>20-50% degradation) | B (>20-50% degradation) | > 1000 |
| Cc1cc(-c2nc(C(=O)Nc3cn(-c4ccc(C(=O)NCCOCCOCCNc5cccc6c5C(=O)N(C5CCC(=O)NC5=O)C6=O)cc4)nc3C(N)=O)co2)ccn1 (stereo not shown) [I-241] | B (>20-50% degradation) | A (>50% degradation) | A (>50% degradation) | < 50 |
| O=C1CCC(N2C(=O)c3cccc(NCCNCCCCCNC(=O)c4ccc(-n5cc(NC(=O)c6coc(-c7ccnc(NC8CC8)c7)n6)c(C(F)F)n5)cc4)c3C2=O)C(=O)N1 (stereo not shown) [I-242] | B (>20-50% degradation) | A (>50% degradation) | A (>50% degradation) | < 50 |
| Cn1c(=O)n(C2CCC(=O)NC2=O)c2ccc(CCCOCCOCCNC(=O)c3ccc(-n4cc(NC(=O)c5coc(-c6ccnc(NCC7CC7)c6)n5)c(C(F)F)n4)cc3)cc21 (stereo not shown) [I-252] | B (>20-50% degradation) | A (>50% degradation) | A (>50% degradation) | < 50 |
| O=C1CCC(N2C(=O)c3cccc(CCCNC(=O)c4ccc(-n5cc(NC(=O)c6coc(-c7ccncc7)n6)c(C(F)F)n5)cc4)c3C2=O)C(=O)N1 (stereo not shown) [I-255] | C (<20% degradation) | C (<20% degradation) | C (<20% degradation) | > 1000 |
